Source: the NIST ThermoML archive (doi:10.1016/j.fluid.2017.04.007)
± gives the expanded uncertainty stated by the source.

How the values were obtained:
[1] = Crystal; DTA
[2] = Molar enthalpy of transition or fusion; details: Crystal; DSC
[3] = xn = mol fraction of the nth substance listed; details: 101 kPa, Liquid, Vibrating tube method

CCCCCCCCCCCCCCCCCC(=O)O [octadecanoic acid]
Details	Molar enthalpy of transition or fusion [kcal/mol]	Normal melting temperature [°C]
[1]	–	70.52 ± 0.45
[2]	14.7 ± 0.335	–

CCCCCCCCCCCCCCCC(=O)O [hexadecanoic acid]
Details	Molar enthalpy of transition or fusion [kcal/mol]	Normal melting temperature [°C]
[1]	–	63.69 ± 0.53
[2]	12.2 ± 0.263	–

CC[N+](CC)(CC)CC.[Cl-] [tetraethylammonium chloride]
Details	Molar enthalpy of transition or fusion [kcal/mol]	Normal melting temperature [°C]
[1]	–	253.63 ± 2.1
[2]	12.2 ± 0.263	–

CC[N+](CC)(CC)CC.[Cl-] [tetraethylammonium chloride] + O
mass density [kg/m3], [3]
Details	298.15 K	308.15 K	318.15 K	328.15 K	338.15 K	348.15 K	358.15 K
x1 = 0.0173	1000.2 ± 0.1	996.7 ± 0.1	992.3 ± 0.1	–	–	–	–
x1 = 0.0403	1005.7 ± 0.1	1001.1 ± 0.1	996.5 ± 0.1	990.9 ± 0.1	982.8 ± 0.1	971.4 ± 0.1	953.1 ± 0.2
x1 = 0.0727	1014.9 ± 0.1	1009.5 ± 0.1	1003.9 ± 0.1	998.3 ± 0.1	992.2 ± 0.1	985.7 ± 0.1	977.1 ± 0.1
x1 = 0.1213	1027 ± 0.1	1020.8 ± 0.1	1014.4 ± 0.1	1008 ± 0.1	1001.5 ± 0.1	995.1 ± 0.1	988.4 ± 0.1
x1 = 0.1994	1035.4 ± 0.2	1029.1 ± 0.2	1022.8 ± 0.2	1016.4 ± 0.2	1010 ± 0.1	1003.4 ± 0.1	997.2 ± 0.1

C[N+](C)(C)C.[Cl-] [tetramethylammonium chloride] + O
mass density [kg/m3], [3]
Details	298.15 K	308.15 K	318.15 K	328.15 K	338.15 K	348.15 K	358.15 K
x1 = 0.026	1001.5 ± 0.1	998.1 ± 0.1	–	–	–	–	–
x1 = 0.06	1005.7 ± 0.1	1001.7 ± 0.1	997.5 ± 0.1	991.3 ± 0.1	985.1 ± 0.1	975.6 ± 0.1	959.5 ± 0.1
x1 = 0.1062	1012.8 ± 0.1	1008.6 ± 0.1	1004.1 ± 0.1	999.5 ± 0.1	993.1 ± 0.1	986.6 ± 0.1	977.1 ± 0.2
x1 = 0.1731	1022.5 ± 0.2	1018.1 ± 0.2	1013.5 ± 0.2	1008.9 ± 0.2	1004 ± 0.2	998.9 ± 0.2	993 ± 0.2
x1 = 0.2831	1034.1 ± 0.3	1029.5 ± 0.3	1025 ± 0.3	1020.3 ± 0.3	1015.7 ± 0.2	1010.9 ± 0.2	1006.1 ± 0.2

CCCCCCCCCCCCCC(=O)O [tetradecanoic acid]
Details	Molar enthalpy of transition or fusion [kcal/mol]	Normal melting temperature [°C]
[1]	–	53.88 ± 0.39
[2]	9.87 ± 0.263	–

C[N+](C)(C)C.[Cl-] [tetramethylammonium chloride]
Details	Normal melting temperature [°C]
[1]	339.72 ± 12

CCCCCCCCCCCC(=O)O [dodecanoic acid]
Details	Molar enthalpy of transition or fusion [kcal/mol]	Normal melting temperature [°C]
[1]	–	44.33 ± 0.66
[2]	9.04 ± 0.201	–

CCCCCCCCCC(=O)O [decanoic acid]
Details	Molar enthalpy of transition or fusion [kcal/mol]	Normal melting temperature [°C]
[1]	–	31.60 ± 0.41
[2]	6.57 ± 0.621	–
